Measurements reported in ChEMBL document CHEMBL1221336, “Xanthones with neuraminidase inhibitory activity from the seedcases of Garcinia mangostana” (Bioorg Med Chem, 2010).

Assays:
[1] = target: T1, Sialidase (Clostridium perfringens) (UniProt P10481); assay: Inhibition of Clostridium perfringens neuraminidase at 1.56 uM by fluorimetry; conditions: TDE = time-dependent effect
T1 sequence (whole entry): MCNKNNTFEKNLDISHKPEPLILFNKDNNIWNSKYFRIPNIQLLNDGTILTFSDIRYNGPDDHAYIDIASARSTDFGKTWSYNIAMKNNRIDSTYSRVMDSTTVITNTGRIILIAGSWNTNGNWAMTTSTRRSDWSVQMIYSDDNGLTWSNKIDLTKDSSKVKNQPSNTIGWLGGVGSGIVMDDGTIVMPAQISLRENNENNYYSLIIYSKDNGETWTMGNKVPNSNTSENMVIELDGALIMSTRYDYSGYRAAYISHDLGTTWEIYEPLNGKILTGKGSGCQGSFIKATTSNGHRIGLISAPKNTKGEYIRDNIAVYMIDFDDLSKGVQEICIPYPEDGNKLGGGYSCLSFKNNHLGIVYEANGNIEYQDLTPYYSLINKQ

[2] = target: T2, Sialidase (Clostridium perfringens, UniProt P10481); assay: Inhibition of Clostridium perfringens neuraminidase by fluorimetry; conditions: for Ki: read-out: Ki(app)
T2 sequence (P10481 whole entry): T1 sequence (whole entry)

[3] = target: T2, Sialidase; assay: Competitive inhibition of Clostridium perfringens neuraminidase by fluorimetry

CC(C)=CCc1c(O)cc2oc3cc(O)c(O)c(CC=C(C)C)c3c(=O)c2c1O
inhibition [1]: tde
IC50 [2]: 2.2 µM
Ki [2]: 7.41 µM
Ki [3]: 0.8 µM

COc1cc2oc3cc(O)c(OC)c(CC=C(C)C)c3c(=O)c2c(O)c1CC=C(C)C
IC50 [2]: 60.7 µM
Ki [3]: 24.9 µM

CC(C)=CCc1c(O)c(CC=C(C)C)c2oc3c(O)cccc3c(=O)c2c1O [8-DEOXYGARTANIN]
IC50 [2]: 29.2 µM
Ki [3]: 15.5 µM

COc1cc2oc3c(O)cccc3c(=O)c2c(O)c1CC=C(C)C [CUDRAXANTHONE]
IC50 [2]: 65.7 µM
Ki [3]: 35.2 µM

COc1c(O)cc2oc3cc(O)c(CC=C(C)C)c(O)c3c(=O)c2c1CCC(C)(C)O [GARCINONE D]
IC50 [2]: 5.7 µM
Ki [3]: 3.3 µM

CC(C)=CCc1c(O)c(CC=C(C)C)c2oc3c(O)ccc(O)c3c(=O)c2c1O [GARTANIN]
inhibition [1]: tde
IC50 [2]: 2.9 µM
Ki [2]: 0.437 µM
Ki [3]: 3.6 µM

COc1c(O)cc2oc3cc4c(c(O)c3c(=O)c2c1CC=C(C)C)C=CC(C)(C)O4 [MANGOSTANIN]
IC50 [2]: 20.1 µM
Ki [3]: 5.9 µM

COc1c(O)cc2oc3cc4c(c(O)c3c(=O)c2c1CC=C(C)C)CC(O)C(C)(C)O4 (stereo unspecified) [MANGOSTANOL]
IC50 [2]: 21.5 µM
Ki [3]: 6.5 µM

C=C(C)C1Cc2c(cc3oc4cc(O)c(OC)c(CC=C(C)C)c4c(=O)c3c2O)O1 (stereo unspecified) [MANGOSTENONE F]
IC50 [2]: 24.8 µM
Ki [3]: 7.6 µM

C=C(C)C1Cc2c(c(O)cc3oc4cc(O)c(CC=C(C)C)c(O)c4c(=O)c23)O1 (stereo unspecified) [MANGOSTENONE G]
IC50 [2]: 14.6 µM
Ki [3]: 6.8 µM

COc1c(O)cc2oc3cc(O)c(CC=C(C)C)c(O)c3c(=O)c2c1CC=C(C)C [MANGOSTIN]
IC50 [2]: 12.2 µM
Ki [3]: 5.8 µM

O=c1c(O)c(-c2ccc(O)c(O)c2)oc2cc(O)cc(O)c12 [QUERCETIN]
IC50 [2]: 9.8 µM

CC(C)=CCC/C(C)=C/Cc1c(O)cc2oc3c(O)ccc(O)c3c(=O)c2c1O [SMEATHXANTHONE A]
inhibition [1]: tde
IC50 [2]: 0.27 µM
Ki [2]: 0.0447 µM
Ki [3]: 0.15 µM
